Source: patent US8431597B2, “Benzimidazole derivatives” (Pfizer Inc., priority 2007, dated 2013)
Where a name gives a salt, the structure may show the parent alone.

Molecular target: T1, Smoothened (SMO) (Mus musculus, UniProt P56726)
T1 construct: C3H10T1/2 cells (ATCC #CCL-226) were split and seeded; endogenous in cells; host or cells: C3H10T1/2 (ATCC #CCL-226)
Test: Smoothened (SMO)/Sonic Hedgehog (SHh) Transient Transcriptional Activation Assay (Gli-luciferase reporter in C3H10T1/2 cells)
Assay type: cell-based, murine
Settings: C3H 10T1/2, 2 μM compound; transfected C3H10T1/2 cells, recombinant human SHh 250 ng/mL, 20 hours, luciferase readout; read-out: SMO CELL % INHIBITION @ 2 μM
Procedure, shortened: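 C3H10T1/2 cells transiently transfected with a murine Gli-responsive firefly luciferase reporter plus pEGFP were serum-starved 20 h in 0.5% calf serum. Compound (2 μM to 2 nM final) was added with recombinant human SHh at 250 ng/mL final for 20 h at 37 °C. Read-out was Dual-Glo luminescence.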

T1 sequence (P56726 33-793): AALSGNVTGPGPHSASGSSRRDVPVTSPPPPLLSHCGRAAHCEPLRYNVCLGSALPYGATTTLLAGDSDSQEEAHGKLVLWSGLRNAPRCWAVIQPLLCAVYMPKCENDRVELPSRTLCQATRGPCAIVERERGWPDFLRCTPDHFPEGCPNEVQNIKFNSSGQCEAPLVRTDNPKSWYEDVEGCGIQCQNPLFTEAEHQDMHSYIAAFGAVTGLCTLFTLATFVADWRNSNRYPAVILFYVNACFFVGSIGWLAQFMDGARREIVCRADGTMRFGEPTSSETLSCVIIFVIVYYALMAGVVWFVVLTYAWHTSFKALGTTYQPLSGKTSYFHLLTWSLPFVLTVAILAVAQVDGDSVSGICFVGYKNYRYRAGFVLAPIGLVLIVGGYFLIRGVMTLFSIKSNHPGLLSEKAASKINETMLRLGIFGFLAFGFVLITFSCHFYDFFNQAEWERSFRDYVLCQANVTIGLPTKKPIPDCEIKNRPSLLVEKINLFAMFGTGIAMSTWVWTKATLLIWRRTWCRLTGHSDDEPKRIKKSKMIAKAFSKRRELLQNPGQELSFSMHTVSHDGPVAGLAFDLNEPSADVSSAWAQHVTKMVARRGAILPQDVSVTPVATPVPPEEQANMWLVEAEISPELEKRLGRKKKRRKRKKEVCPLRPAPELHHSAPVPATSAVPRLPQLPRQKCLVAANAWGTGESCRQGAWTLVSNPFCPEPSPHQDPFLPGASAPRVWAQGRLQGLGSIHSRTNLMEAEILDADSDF

Compound | inhibition at 2 µM [%]
CN1CC[C@@H](NC(=O)c2ccc3c(c2)OCCO3)C[C@H]1c1nc2ccccc2[nH]1 [Example 42, N-[(2S,4R)-2-(1H-benzimidazol-2-yl)-1-methylpiperidin-4-yl]-2,3-dihydro-1,4-benzodioxine-6-carboxamide hydrochloride] | 106
CN1CC[C@@H](NC(=O)c2cc3c(cc2Cl)OCCO3)C[C@@H]1c1nc2cc(Cl)ccc2[nH]1 [Example 148, 7-chloro-N-[(2R,4R)-2-(5-chloro-1H-benzimidazol-2-yl)-1-methylpiperidin-4-yl]-2,3-dihydro-1,4-benzodioxine-6-carboxamide triflouroacetate] | 95
COc1ccc2[nH]c([C@H]3C[C@H](NC(=O)c4ccc5c(c4F)OCCO5)CCN3C)nc2c1 [Example 143, 5-fluoro-N-[(2R,4R)-2-(5-methoxy-1H-benzimidazol-2-yl)-1-methylpiperidin-4-yl]-2,3-dihydro-1,4-benzodioxine-6-carboxamide triflouroacetate] | 83.5
N#Cc1ccc(NC(=O)N[C@@H]2CCN(C3CCC3)[C@@H](c3nc4ccccc4[nH]3)C2)cc1 [Example 70, 1-[(2R,4R)-2-(1H-benzimidazol-2-yl)-1-cyclobutyl-piperidin-4-yl]-3-(4-cyanophenyl)urea] | 101
COc1ccc2[nH]c([C@H]3C[C@H](NC(=O)Nc4ccc(C)nc4)CCN3C3CCC3)nc2c1 [Example 153, 1-[(2R,4R)-1-cyclobutyl-2-(5-methoxy-1H-benzimidazol-2-y1)piperidin-4-yl]-3-(6-methylpyridin-3-yl)urea triflouroacetate] | 107
CN1CC[C@@H](NC(=O)Nc2ccc(C#N)cc2)C[C@@H]1c1nc2cc(C#N)ccc2[nH]1 [Example 19, 1-[(2R,4R)-2-(5-cyano-1H-benzimidazol-2-yl)-1-methylpiperidin-4-yl]-3-(4-cyanophenyl)urea hydrochloride] | 109
CN1C[C@@H](NC(=O)Nc2ccc(Cl)c(C(F)(F)F)c2)C[C@H]1c1nc2ccc(F)cc2[nH]1 [Example 58, 1-[4-chloro-3-(trifluoromethyl)phenyl]-3-[(3S,5S)-5-(6-fluoro-1H-benzimidazol-2-yl)-1-methylpyrrolidin-3-yl]urea] | 104
CN1CC[C@@H](NC(=O)c2ccc(N=[N+]=[N-])cc2)C[C@@H]1c1nc2ccccc2[nH]1 [Example 72, 4-azido-N-[(2R,4R)-2-(1H-benzimidazol-2-yl)-1-methylpiperidin-4-yl]benzamide] | 101
CN1CC[C@@H](NC(=O)c2ccc3c(c2)OCCO3)C[C@@H]1c1nc2ccccc2[nH]1 [Example 86, N-[(2R,4R)-2-(1H-benzimidazol-2-yl)-1-methylpiperidin-4-yl]-2,3-dihydro-1,4-benzodioxine-6-carboxamide hydrochloride] | 93.1
CN1CC[C@@H](NC(=O)Nc2ccc(C#N)cn2)C[C@@H]1c1nc2ccccc2[nH]1 [Example 43, 1-[(2R,4R)-2-(1H-benzimidazol-2-yl)-1-methylpiperidin-4-yl]-3-(5-cyanopyridin-2-yl)urea hydrochloride] | 106
COc1ccc(NC(=O)N[C@@H]2CCN(C)[C@@H](c3nc4ccc(Cl)cc4[nH]3)C2)cn1 [Example 133, 1-[(2R,4R)-2-(6-chloro-1H-benzimidazol-2-yl)-1-methylpiperidin-4-yl]-3-(6-methoxypyridin-3-yl)urea hydrochloride] | 108
